BindingDB's records for doi:10.1016/s0960-894x(03)00680-2 (Merck Research Laboratories, 2003)

Experiments:
Assay in all cases: Protease Inhibition Assay
[1] = molecular target: T1, Dimer of Gag-Pol polyprotein [489-587,Q496K,L499I,M525I,N526D,M535I,R546K,L552P,A560V,G562S,I573V,L579M,I582L] (Human immunodeficiency virus 1, UniProt P12497, A560V/G562S/I573V/I582L/L499I/L552P/L579M/M525I/M535I/N526D/Q496K/R546K)
T1 construct: 489-587
Description: (§1) Assay of HIV protease inhibition was performed by peptide cleavage using the substrate Val-Ser-Gln-Asn-beta-naphthylalanine*Pro-Ile-Val. Products of the cleavage reaction were quantified by HPLC detection, and data were fit to nonlinear least squares equations for determination of steady-state Michaelis-Menten kinetics.

[2] = molecular target: T2, Dimer of Gag-Pol polyprotein [489-587,Q496K,L499I,M535I,I543V,Q547E,L552P,I553V,V566I,V571F,I573V,L579M,I582L] (Human immunodeficiency virus 1, UniProt P12497, I543V/I553V/I573V/I582L/L499I/L552P/L579M/M535I/Q496K/Q547E/V566I/V571F)
T2 construct: 489-587
Description: as §1

[3] = molecular target: T3, Dimer of Gag-Pol polyprotein [489-587,Q496K,L499I,N526S,R530K,M535I,I543V,I551V,L552P,A560V,V566I,V571A,L579M,I582L] (Human immunodeficiency virus 1, UniProt P12497, A560V/I543V/I551V/I582L/L499I/L552P/L579M/M535I/N526S/Q496K/R530K/V566I/V571A)
T3 construct: 489-587
Description: as §1

[4] = molecular target: T4, Dimer of Gag-Pol polyprotein [489-587,Q496K] (Human immunodeficiency virus 1, UniProt P12497, Q496K); conditions: pH 5.5; 30 °C
T4 construct: 489-587
Description: as §1

O=C(N[C@H]1c2ccccc2OC[C@H]1O)[C@H](Cc1cccnc1)C[C@H](O)CN1CCN(Cc2cc3ccsc3s2)C[C@H]1C(=O)NCC(F)(F)F [(2S)-1-[(2S,4R)-2-hydroxy-4-{[(3S,4S)-3-hydroxy-3,4-dihydro-2H-1-benzopyran-4-yl]carbamoyl}-4-(pyridin-3-ylmethyl)butyl]-4-{thieno[2,3-b]thiophen-2-ylmethyl}-N-(2,2,2-trifluoroethyl)piperazine-2-carboxamide]
IC50 [1]: 0.43 nM
IC50 [2]: 5 nM
IC50 [3]: 3.2 nM
IC50 [4]: 0.03 nM

O=C(N[C@H]1c2ccccc2OC[C@H]1O)[C@H](Cc1ccncc1)C[C@H](O)CN1CCN(Cc2cc3ccsc3s2)C[C@H]1C(=O)NCC(F)(F)F [(2S)-1-[(2S,4R)-2-hydroxy-4-{[(3S,4S)-3-hydroxy-3,4-dihydro-2H-1-benzopyran-4-yl]carbamoyl}-4-(pyridin-4-ylmethyl)butyl]-4-{thieno[2,3-b]thiophen-2-ylmethyl}-N-(2,2,2-trifluoroethyl)piperazine-2-carboxamide]
IC50 [1]: 1.2 nM
IC50 [2]: 20 nM
IC50 [3]: 4.8 nM
IC50 [4]: 0.07 nM
